Assay results reported in paper PMC10247778, “PXL1 and SERKs act as receptor–coreceptor complexes for the CLE19 peptide to regulate pollen development” (Nature Communications, 2023).
Entries after “also recorded” stand apart in the source; their conditions may differ. Ends that are not written are not given here.

Tests used:
PXL1 (PXL1^LRR) = assay: Gel filtration-MALDI-TOF identification of peptides copurified with PXL1 LRR; type: binding, Arabidopsis; details: PXL1^LRR incubated with synthesized peptide mixture (0.1 mg each), 10 mM Bis-Tris pH 6.0, 100 mM NaCl, on ice 1 h, Superdex 200
Protocol: As part of an effort to identify cognate receptors for peptidyl ligands in Arabidopsis, a pool of synthetic CLE small peptides (Supplementary Table 1) was mixed with purified individual extracellular LRR domains of receptor-like kinases (RLKs). The putative RLK-ligand complexes were purified by gel-filtration, and the peptides were detected by mass spectrometry, as reported previously.
Purified PXL1^LRR protein (with buffer containing 10 mM Bis-Tris pH 6.0, 100 mM NaCl) was incubated with synthesized peptide mixture (0.1 mg for each; Supplementary Table 1) on ice for 1 h. Then, each mixture was subjected to gel filtration (Superdex 200, GE Healthcare) for analysis. The relevant peak fractions of PXL1^LRR were collected and 2 μl was used for analyzed by MALDI-TOF–mass spectrometry analysis.

PXL1 (PXL1-FLAG) = assay: In vivo phosphorylation assay, Phos-tag SDS-PAGE and western blot; type: cell-based, Arabidopsis; details: 10-day-old pPXL1::PXL1-FLAG seedlings, 20 µM peptide, 1.5 h; Phos-tag gel, anti-FLAG; λpp control
Protocol: Ten-day-old […] transgenic seedlings were tested to observe the phosphorylation status of PXL1. The seedlings were cultured in 1/2 MS liquid medium treated with mock or 20 μM CLE19, CLE19[…] or CLV3 peptide for 1.5 h and then ground to a fine powder in liquid N2 for protein extraction performed as described above. The extracted protein was analyzed by Phos-tag (Wako) gel and immunoblotting using anti-FLAG (GNI) antibody. The anti-HSP70 (Abmart) antibody was used to determine the amount of input protein. Anti-FLAG beads (Abmart) were used for immunoprecipitation to purify the PXL1-FLAG protein. Anti-pS/T (ECM) was used to detect the phosphorylation status of the PXL1 protein after CLE19 treatment. The seedling protein extracted was also treated with λpp (NEB) at 30 °C for 0.5 h and then analyzed by anti-FLAG and anti-HSP antibodies.

[1] = molecular target: PXL1^∆KD–SERK1^∆KD interaction; assay: Co-IP PXL1^∆KD-SERK1^∆KD in Nicotiana benthamiana; type: cell-based, Arabidopsis; details: N. benthamiana leaves, with or without peptide 3–4 h; GFP-Trap, anti-Myc
Description: The 825 bp SERK1 (SERK1^∆KD), 834 bp SERK2 (SERK2^∆KD) and the 927 bp SERK3/BAK1 (BAK1^∆KD) coding regions were amplified with the primers listed in Supplementary Table 3. The PCR products of SERK1^∆KD, SERK2^∆KD and BAK1^∆KD were inserted into the pCAMBIA1306-GFP vector at the KpnI and SalI sites to generate the pCAMBIA1306-SERK1^∆KD/2/BAK1^∆KD-GFP constructs. pCAMBIA1306-PXL^∆KD -MYC, pCAMBIA1306-SERK1^∆KD GFP and pCAMBIA1306-BAK1^∆KD-GFP were transferred into the Agrobacterium tumefaciens GV3101 strain.
The cultures were grown overnight in 2 x YT medium and resuspended to optical density at 600 nm (OD600) = 2.0 in an injection buffer (150 μM acetosyringone, 10 mM MgCl2 and 10 mM MES). […]
Total proteins were extracted from the N. benthamiana leaves with the extraction buffer (50 mM Tris-HCl (pH 7.5), 150 mM NaCl, 5 mM EDTA, 5% glycerol, 1% Triton X-100 with protease inhibitor, phosphatase inhibitor, and PMSF) and then incubated with GFP-Trap beads (Chromo Tek) at 4 °C for 4 h, followed by two washes (50 mM Tris-HCl (pH 7.5), 150 mM NaCl, 5 mM EDTA, 5% glycerol, and 0.01% Triton X-100). Proteins were separated on SDS-PAGE gels and detected by anti-Myc (GNI) antibody via western blots.

[2] = molecular target: PXL1 LRR (Arabidopsis thaliana) (UniProt Q9FRS6); assay: ITC; details: cited from earlier work
[3] = molecular target: PXL2 LRR (Arabidopsis thaliana) (UniProt Q9M0G7); assay: ITC; details: cited from earlier work
Chain of PXL2 LRR (Arabidopsis thaliana) (Q9M0G7 24-633): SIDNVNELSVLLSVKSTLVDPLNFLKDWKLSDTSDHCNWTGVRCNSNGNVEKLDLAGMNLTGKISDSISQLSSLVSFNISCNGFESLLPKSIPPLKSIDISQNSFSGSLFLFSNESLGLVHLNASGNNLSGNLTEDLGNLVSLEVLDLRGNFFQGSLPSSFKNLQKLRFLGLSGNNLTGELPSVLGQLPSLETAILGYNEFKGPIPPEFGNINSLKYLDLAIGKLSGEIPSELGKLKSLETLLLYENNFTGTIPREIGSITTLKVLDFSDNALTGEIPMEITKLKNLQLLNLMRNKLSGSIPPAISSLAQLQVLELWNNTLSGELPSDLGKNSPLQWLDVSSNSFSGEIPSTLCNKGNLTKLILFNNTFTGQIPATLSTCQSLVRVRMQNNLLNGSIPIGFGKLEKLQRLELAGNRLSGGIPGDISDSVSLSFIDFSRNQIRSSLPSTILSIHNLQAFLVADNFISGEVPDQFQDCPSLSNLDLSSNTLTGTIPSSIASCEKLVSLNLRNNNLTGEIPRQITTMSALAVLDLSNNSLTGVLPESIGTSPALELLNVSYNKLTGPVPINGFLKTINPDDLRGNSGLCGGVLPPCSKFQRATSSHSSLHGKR

[4] = molecular target: PXY LRR (Arabidopsis thaliana) (UniProt Q9FII5); assay: ITC; details: cited from earlier work
Chain of PXY LRR (Arabidopsis thaliana) (Q9FII5 30-652): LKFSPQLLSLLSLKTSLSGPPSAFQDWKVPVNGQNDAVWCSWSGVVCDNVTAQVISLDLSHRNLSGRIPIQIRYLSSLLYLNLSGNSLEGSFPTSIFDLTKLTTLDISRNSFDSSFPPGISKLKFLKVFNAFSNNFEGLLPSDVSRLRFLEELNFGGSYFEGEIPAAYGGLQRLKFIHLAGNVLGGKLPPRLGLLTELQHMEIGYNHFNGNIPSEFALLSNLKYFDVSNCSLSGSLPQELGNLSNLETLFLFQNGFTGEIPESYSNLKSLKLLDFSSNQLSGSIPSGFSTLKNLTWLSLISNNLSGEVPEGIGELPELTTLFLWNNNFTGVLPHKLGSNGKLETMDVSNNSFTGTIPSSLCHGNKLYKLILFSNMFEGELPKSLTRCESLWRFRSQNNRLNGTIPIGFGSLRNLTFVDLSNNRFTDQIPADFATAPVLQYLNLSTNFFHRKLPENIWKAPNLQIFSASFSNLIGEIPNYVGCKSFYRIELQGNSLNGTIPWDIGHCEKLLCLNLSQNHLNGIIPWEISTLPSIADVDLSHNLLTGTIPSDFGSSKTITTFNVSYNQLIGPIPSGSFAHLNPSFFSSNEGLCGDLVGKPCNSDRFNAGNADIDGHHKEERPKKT

[5] = molecular target: T1, PXL1^LRR (extracellular LRR domain of PXY-LIKE1, residues 1-639, 6xHis) (Arabidopsis, UniProt Q9FRS6 24-639); assay: ITC; ITC200; 1 mM CLE19 titrated into 0.1 mM PXL1^LRR in the cell, 20 injections; 10 mM Bis-Tris pH 6.0, 100 mM NaCl; 25 °C; details: both partners purified
T1 construct: signal peptide in the construct; PXL1 (PXY-LIKE1), Arabidopsis, AT1G08590, LRR domains, residues 1-639; also called PXL1 ectodomain; PXL1^LRR-6×His; source: High Five cells, purified (Ni-NTA, size-exclusion chromatography)
T1 sequence (looked up): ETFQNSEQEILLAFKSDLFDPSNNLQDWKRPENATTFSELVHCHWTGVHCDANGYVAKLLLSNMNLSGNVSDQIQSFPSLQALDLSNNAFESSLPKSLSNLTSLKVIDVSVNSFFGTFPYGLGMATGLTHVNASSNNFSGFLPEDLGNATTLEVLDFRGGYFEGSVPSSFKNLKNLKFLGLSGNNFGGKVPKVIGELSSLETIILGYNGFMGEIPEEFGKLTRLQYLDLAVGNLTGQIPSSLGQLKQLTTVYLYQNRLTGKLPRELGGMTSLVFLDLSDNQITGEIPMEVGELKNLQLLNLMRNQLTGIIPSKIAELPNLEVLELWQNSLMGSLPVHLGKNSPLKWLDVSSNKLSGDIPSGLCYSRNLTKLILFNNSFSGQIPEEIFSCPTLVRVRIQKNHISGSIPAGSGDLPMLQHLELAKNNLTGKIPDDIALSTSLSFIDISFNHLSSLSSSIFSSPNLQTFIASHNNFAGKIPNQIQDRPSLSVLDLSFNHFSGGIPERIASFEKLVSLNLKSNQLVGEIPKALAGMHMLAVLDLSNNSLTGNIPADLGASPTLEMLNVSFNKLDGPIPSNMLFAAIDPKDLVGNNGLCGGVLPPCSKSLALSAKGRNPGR

[6] = molecular target: PXL2 (protein used for ITC) (Arabidopsis, UniProt Q9M0G7 24-1013); assay: ITC; CLE19 with PXL2 and with PXY; conditions not told for these proteins; details: both partners purified
Chain of PXL2 (protein used for ITC) (Q9M0G7 24-1013): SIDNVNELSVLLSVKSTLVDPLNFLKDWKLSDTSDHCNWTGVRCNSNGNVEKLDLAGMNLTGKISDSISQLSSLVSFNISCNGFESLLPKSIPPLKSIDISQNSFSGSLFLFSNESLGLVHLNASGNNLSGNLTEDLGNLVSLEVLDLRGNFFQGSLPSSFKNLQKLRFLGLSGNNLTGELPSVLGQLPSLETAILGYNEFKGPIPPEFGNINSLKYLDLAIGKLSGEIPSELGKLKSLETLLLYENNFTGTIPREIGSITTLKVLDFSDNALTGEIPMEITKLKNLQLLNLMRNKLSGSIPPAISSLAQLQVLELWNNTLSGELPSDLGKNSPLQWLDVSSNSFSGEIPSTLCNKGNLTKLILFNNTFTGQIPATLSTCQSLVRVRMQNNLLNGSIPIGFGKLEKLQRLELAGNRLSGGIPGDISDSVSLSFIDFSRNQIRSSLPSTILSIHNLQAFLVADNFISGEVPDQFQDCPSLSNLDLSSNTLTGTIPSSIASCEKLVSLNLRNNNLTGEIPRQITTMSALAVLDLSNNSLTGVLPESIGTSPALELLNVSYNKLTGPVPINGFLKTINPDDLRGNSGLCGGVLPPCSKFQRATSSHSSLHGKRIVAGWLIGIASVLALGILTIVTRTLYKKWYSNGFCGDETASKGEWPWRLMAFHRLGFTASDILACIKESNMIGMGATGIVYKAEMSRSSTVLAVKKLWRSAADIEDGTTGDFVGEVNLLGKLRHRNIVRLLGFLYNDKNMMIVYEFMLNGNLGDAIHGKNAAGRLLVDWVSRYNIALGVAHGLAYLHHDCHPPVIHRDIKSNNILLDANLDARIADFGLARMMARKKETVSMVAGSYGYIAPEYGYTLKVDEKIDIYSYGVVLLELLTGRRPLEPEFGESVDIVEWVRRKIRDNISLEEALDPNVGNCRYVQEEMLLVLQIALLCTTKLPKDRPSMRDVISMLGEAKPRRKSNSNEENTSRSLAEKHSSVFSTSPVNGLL

CLE3: synthetic CLE small peptide of the pool (RLSPGGPDPRHH; ends and bridges not checked; UniProt Q3EDH8 72-83, looked up)
CLE peptide copurified with PXL1 (PXL1 (PXL1^LRR)): CLE19 was the only CLE peptide that co-purified with PXL1; also recorded: but not CLV3, CLE3, CLE6, and others

CLE25: CLE peptide (RKVPNGPDPIHN; ends and bridges not checked; UniProt Q8LFL4 58-69, looked up)
CLE peptide copurified with PXL1 (PXL1 (PXL1^LRR)): CLE19 was the only CLE peptide that co-purified with PXL1

CLE45: CLE peptide (RRVRRGSDPIHN; ends and bridges not checked; UniProt Q6IWA9 107-118, looked up)
CLE peptide copurified with PXL1 (PXL1 (PXL1^LRR)): CLE19 was the only CLE peptide that co-purified with PXL1

CLE8: CLE peptide (RRVPTGPNPLHH; ends and bridges not checked; UniProt Q2V4E2 61-72, looked up)
CLE peptide copurified with PXL1 (PXL1 (PXL1^LRR)): CLE19 was the only CLE peptide that co-purified with PXL1

CLE16: CLE peptide (RLVHTGPNPLHN; ends and bridges not checked; UniProt Q8S8M2 92-103, looked up)
CLE peptide copurified with PXL1 (PXL1 (PXL1^LRR)): CLE19 was the only CLE peptide that co-purified with PXL1

CLE18: CLE peptide (RQIPTGPDPLHN; ends and bridges not checked; UniProt Q3ECH9 37-48, looked up)
CLE peptide copurified with PXL1 (PXL1 (PXL1^LRR)): CLE19 was the only CLE peptide that co-purified with PXL1

CLE20: CLE peptide (RKVKTGSNPLHN; ends and bridges not checked; UniProt Q3EDI6 70-81, looked up)
CLE peptide copurified with PXL1 (PXL1 (PXL1^LRR)): CLE19 was the only CLE peptide that co-purified with PXL1

CLE46: CLE peptide (HKHPSGPNPTGN; ends and bridges not checked; UniProt Q8LDN4 58-69, looked up)
CLE peptide copurified with PXL1 (PXL1 (PXL1^LRR)): CLE19 was the only CLE peptide that co-purified with PXL1

CLE40: CLE peptide (RQVPTGSDPLHH; ends and bridges not checked; UniProt Q9LXU0 62-73, looked up)
CLE peptide copurified with PXL1 (PXL1 (PXL1^LRR)): CLE19 was the only CLE peptide that co-purified with PXL1

CLE11: CLE peptide (RVVPSGPNPLHH; ends and bridges not checked; UniProt Q3ECU1 88-99, looked up)
CLE peptide copurified with PXL1 (PXL1 (PXL1^LRR)): CLE19 was the only CLE peptide that co-purified with PXL1

CLE12: CLE peptide (RRVPSGPNPLHH; ends and bridges not checked; UniProt Q29PU4 107-118, looked up)
CLE peptide copurified with PXL1 (PXL1 (PXL1^LRR)): CLE19 was the only CLE peptide that co-purified with PXL1

CLE19G6T: functionally inactive CLE19G6T (RVIPTTPNPLHN; ends and bridges not checked; UniProt Q8W261 62-73, looked up, variant G6T)
PXL1 phosphorylation (Phos-tag migration) (PXL1 (PXL1-FLAG)): Neither CLE19G6T nor CLV3 induced the phosphorylation-related migration of PXL1; also recorded: PXL1 phosphorylation was not induced; also recorded: lost the ability of inducing PXL1 phosphorylation

CLE43: CLE peptide (RRIPSSPDRLHN; ends and bridges not checked; UniProt Q6IWB1 85-96, looked up)
CLE peptide copurified with PXL1 (PXL1 (PXL1^LRR)): CLE19 was the only CLE peptide that co-purified with PXL1

CLAVATA3 [CLV3]
CLE peptide copurified with PXL1 (PXL1 (PXL1^LRR)): interaction with PXL1 was not detected; also recorded: CLE19 was the only CLE peptide that co-purified with PXL1; also recorded: but not CLV3, CLE3, CLE6, and others | PXL1 phosphorylation (Phos-tag migration) (PXL1 (PXL1-FLAG)): Neither CLE19G6T nor CLV3 induced the phosphorylation-related migration of PXL1; also recorded: PXL1 phosphorylation was not induced | PXL1^∆KD-SERK1^∆KD interaction (co-IP) [1]: no such interaction was detected in the absence of CLE19 or the presence of CLV3

CLE41 (from UniProt Q84W98)
Kd [2]: 2100 nM | Kd [3]: 9900 nM | Kd [4]: 33 nM

CLE14: CLE peptide (RLVPKGPNPLHN; ends and bridges not checked; UniProt Q3ECJ5 68-79, looked up)
CLE peptide copurified with PXL1 (PXL1 (PXL1^LRR)): CLE19 was the only CLE peptide that co-purified with PXL1

CLE9: CLE peptide (RLVPSGPNPLHN; ends and bridges not checked; UniProt Q9FZE4 109-120, looked up)
CLE peptide copurified with PXL1 (PXL1 (PXL1^LRR)): CLE19 was the only CLE peptide that co-purified with PXL1

CLE6: synthetic CLE small peptide of the pool (RVSPGGPDPQHH; ends and bridges not checked; UniProt Q8S8N3 70-81, looked up)
CLE peptide copurified with PXL1 (PXL1 (PXL1^LRR)): CLE19 was the only CLE peptide that co-purified with PXL1; also recorded: but not CLV3, CLE3, CLE6, and others

B1: CLAVATA3/EMBRYO SURROUNDING REGION-RELATED 19 (CLE19) peptide (peptide)
chain: RVIPTGPNPLHN
Kd [5]: ~346 nM

B2: CLAVATA3/EMBRYO SURROUNDING REGION-RELATED 19 (CLE19) peptide (peptide)
chain: RVIPTGPNPLHN
modifications: ends and bridges not checked
Kd [6]: 714 nM
